Reference: patent US9322066B2, “Predictors for cancer treatment” (priority 2011, dated 2016)

Tested on: relapsed or refractory, rituximab-naive or -sensitive follicular B-cell NHL
Assay: Time to next anti-lymphoma therapy, Vc-R vs rituximab study, by biomarker
Type: in vivo, human
Design: Median, Time to Next Anti-Lymphoma Therapy / Time to Next Anti-Lymphoma Therapy, Median: unit not given here
Text: Non-Hodgkin lymphoma (NHL) encompasses several unique malignant lymphoid disease entities that vary in clinical behavior, morphologic appearance, immunologic, and molecular phenotype. […] A randomized, open-label, active-controlled, multicenter, multinational, prospective study to compare the efficacy and safety of the combination of bortezomib and rituximab (Vc-R) to single-agent rituximab in subjects who have relapsed or refractory, rituximab-naive or -sensitive follicular B-cell NHL was performed.
Subjects were centrally randomized to Treatment Groups A (Vc-R) or B (rituximab) in a 1:1 ratio taking into account the following stratification factors: • Follicular Lymphoma International Prognostic Index (FLIPI) score (low [0 or 1 factor], intermediate [2 factors], high [≧3 factors]); • Prior rituximab therapy (yes, no); • Time since last dose of anti-lymphoma therapy (≦1 year, >1 year); • Region (United States/Canada, European Union, Rest of World).
The following clinical endpoints were included in the analysis within each treatment group and an overall comparison was made with the biomarker-related endpoints: Progression-free survival, defined as the interval between the date of randomization and the date of progressive disease (PD) or death, whichever is first reported in the ITT population; overall survival; overall response rate (complete response [CR]+CR unconfirmed [CRu]+partial response [PR]); overall CR rate (CR+CRu); duration of response; time to next anti-lymphoma therapy; and treatment free interval.

[1] = 20S % NUCLEAR STAINING: 0-20, Female, IRC Review
[2] = 20S % NUCLEAR STAINING: 60-70, Male, IRC Review
[3] = 20S % NUCLEAR STAINING: 60-70, Prior Rituximab Therapy, IRC Review
[4] = 20S INTENSITY CYTOPLASMIC SIGNAL: ≧3+, European Union, IRC Review
[5] = 20S INTENSITY CYTOPLASMIC SIGNAL: ≧3+, Male, IRC Review
[6] = BCL2/A43G: MND, subgroup White, IRC review
[7] = BCL2/C.-11C > T: MND, subgroup White, IRC review
[8] = BCL2/E29K: MND, subgroup White, IRC review
[9] = BCL2/P46L: MND, subgroup White, IRC review
[10] = BCL2/P46S: MND, subgroup White, IRC review
[11] = BCL2/P59L: MND, subgroup White, IRC review
[12] = BCL2/P59S: MND, subgroup White, IRC review
[13] = BCL2/Q52P: MND, subgroup White, IRC review
[14] = BCL2/R106H: MND, subgroup White, IRC review
[15] = CD68 OVERALL POSITIVE: 0-25, 2 Prior Lines of Therapy, IRC Review
[16] = CD68 OVERALL POSITIVE: 0-25, >1 year since last anti-lymphoma treatment, IRC Review
[17] = CD68 OVERALL POSITIVE: 0-25, Ann Arbor Stage III, IRC Review
[18] = CD68 OVERALL POSITIVE: 0-25, Ann Arbor Stage IV, IRC Review
[19] = CD68 OVERALL POSITIVE: 0-25, European Union, IRC Review
[20] = CD68 OVERALL POSITIVE: 0-25, Female, IRC Review
[21] = CD68 OVERALL POSITIVE: 0-25, Intermediate FLIPI Score, IRC Review
[22] = CD68 OVERALL POSITIVE: 0-25, Low FLIPI Score, IRC Review
[23] = CD68 OVERALL POSITIVE: 0-25, Male, IRC Review
[24] = CD68 OVERALL POSITIVE: 0-25, No High Tumor Burden, IRC Review
[25] = CD68 OVERALL POSITIVE: 0-25, No Prior Rituximab Therapy, IRC Review
[26] = CD68 OVERALL POSITIVE: 0-25, No Subgroup, IRC Review
[27] = CD68 OVERALL POSITIVE: 0-25, Prior Rituximab Therapy, IRC Review
[28] = CD68 OVERALL POSITIVE: 0-25, White, IRC Review
[29] = CD68 OVERALL POSITIVE: 0-25, ≦65 years old, IRC Review
[30] = CD68 OVERALL POSITIVE: >75, Male, IRC Review
[31] = CD68 POSITIVE FOLLICULAR: 0-25, >1 year since last anti-lymphoma treatment, IRC Review
[32] = CD68 POSITIVE FOLLICULAR: 0-25, Ann Arbor Stage III, IRC Review
[33] = CD68 POSITIVE FOLLICULAR: 0-25, Asian, IRC Review
[34] = CD68 POSITIVE FOLLICULAR: 0-25, Female, IRC Review
[35] = CD68 POSITIVE FOLLICULAR: 0-25, Intermediate FLIPI Score, IRC Review
[36] = CD68 POSITIVE FOLLICULAR: 0-25, No High Tumor Burden, IRC Review
[37] = CD68 POSITIVE FOLLICULAR: 0-25, No Prior Rituximab Therapy, IRC Review
[38] = CD68 POSITIVE FOLLICULAR: 0-25, No Subgroup, IRC Review
[39] = CD68 POSITIVE FOLLICULAR: 0-25, White, IRC Review
[40] = CD68 POSITIVE FOLLICULAR: 0-25, ≦65 years old, IRC Review
[41] = CD68 POSITIVE PERIFOLLICULAR: 0-25, 2 Prior Lines of Therapy, IRC Review
[42] = CD68 POSITIVE PERIFOLLICULAR: 0-25, >1 year since last anti-lymphoma treatment, IRC Review
[43] = CD68 POSITIVE PERIFOLLICULAR: 0-25, Ann Arbor Stage IV, IRC Review
[44] = CD68 POSITIVE PERIFOLLICULAR: 0-25, Female, IRC Review
[45] = CD68 POSITIVE PERIFOLLICULAR: 0-25, Intermediate FLIPI Score, IRC Review
[46] = CD68 POSITIVE PERIFOLLICULAR: 0-25, No High Tumor Burden, IRC Review
[47] = CD68 POSITIVE PERIFOLLICULAR: 0-25, No Prior Rituximab Therapy, IRC Review
[48] = CD68 POSITIVE PERIFOLLICULAR: 0-25, No Subgroup, IRC Review

With rituximab the “Evt/N, Time to Next Anti-Lymphoma Therapy” value (shortened to “Evt/N, Time”) [1] was 35/61, the “Median, Time to Next Anti-Lymphoma Therapy” value (shortened to “Median, Time”) [1] was 568 and the “Evt/N, Time” value [2] was 14/16. The “Median, Time” value [2] was 247, the “Evt/N, Time” value [3] was 17/21 and the “Median, Time” value [3] was 343. For the same substance, the “Evt/N, Time” value [4] was 34/52, the “Median, Time” value [4] was 533 and the “Evt/N, Time” value [5] was 20/27. For the same substance, the “Median, Time” value [5] was 421, the “Median, Time” value (BCL2/A43G: MND, subgroup Ann Arbor Stage IV, IRC review) was 450 and the “Evt/N, Time” value [6] was 89/140. The “Median, Time” value [6] was 504, the “Median, Time” value (BCL2/C.-11C > T: MND, subgroup Ann Arbor Stage IV, IRC review) was 450 and the “Evt/N, Time” value [7] was 110/168. For the same substance, the “Median, Time” value [7] was 504, the “Evt/N, Time” value [8] was 83/129 and the “Median, Time” value [8] was 485. For the same substance, the “Evt/N, Time” value [9] was 74/117, the “Median, Time” value [9] was 505 and the “Evt/N, Time” value [10] was 81/130. For the same substance, the “Median, Time” value [10] was 505, the “Evt/N, Time” value [11] was 80/129 and the “Median, Time” value [11] was 533. The “Evt/N, Time” value [12] was 81/128, the “Median, Time” value [12] was 505 and the “Evt/N, Time” value [13] was 85/135. The “Median, Time” value [13] was 504, the “Evt/N, Time” value [14] was 93/140 and the “Median, Time” value [14] was 501. For the same substance, the “time to next treatment interval” value (Biomarker positive (PSMB1 P11A heterozygote and CD68 Low)) was 14.8 mo, the “Evt/N, Time” value [15] was 6/8 and the “Median, Time” value [15] was 204. The “Evt/N, Time” value [16] was 17/26, the “Median, Time” value [16] was 409 and the “Evt/N, Time” value [17] was 12/16. The “Median, Time” value [17] was 276, the “Evt/N, Time” value [18] was 15/22 and the “Median, Time” value [18] was 434. For the same substance, the “Evt/N, Time” value [19] was 14/22, the “Median, Time” value [19] was 374 and the “Evt/N, Time” value [20] was 16/26. For the same substance, the “Median, Time” value [20] was 434, the “Evt/N, Time” value [21] was 7/11 and the “Median, Time” value [21] was 485. The “Evt/N, Time” value [22] was 8/10, the “Median, Time” value [22] was 422 and the “Evt/N, Time” value [23] was 14/18. For the same substance, the “Median, Time” value [23] was 251, the “Evt/N, Time” value [24] was 8/14 and the “Median, Time” value [24] was 552. For the same substance, the “Evt/N, Time” value [25] was 12/19, the “Median, Time” value [25] was 533 and the “Evt/N, Time” value [26] was 30/44. For the same substance, the “Median, Time” value [26] was 409, the “Evt/N, Time” value [27] was 18/25 and the “Median, Time” value [27] was 235. The “Evt/N, Time” value [28] was 24/35, the “Median, Time” value [28] was 409 and the “Evt/N, Time” value [29] was 24/34. For the same substance, the “Median, Time” value [29] was 374, the “Evt/N, Time” value (CD68 OVERALL POSITIVE: 51-75, No High Tumor Burden, IRC Review) was 10/25 and the “Evt/N, Time” value [30] was 8/9. The “Median, Time” value [30] was 427, the “Evt/N, Time” value [31] was 22/34 and the “Median, Time” value [31] was 550. The “Evt/N, Time” value [32] was 19/24, the “Median, Time” value [32] was 332 and the “Evt/N, Time” value [33] was 5/6. The “Median, Time” value [33] was 220, the “Evt/N, Time” value [34] was 23/37 and the “Median, Time” value [34] was 462. For the same substance, the “Evt/N, Time” value [35] was 14/20, the “Median, Time” value [35] was 421 and the “Evt/N, Time” value [36] was 14/22. The “Median, Time” value [36] was 573, the “Evt/N, Time” value [37] was 23/36 and the “Median, Time” value [37] was 485. The “Evt/N, Time” value [38] was 40/60, the “Median, Time” value [38] was 462 and the “Evt/N, Time” value [39] was 32/48. For the same substance, the “Median, Time” value [39] was 462, the “Evt/N, Time” value [40] was 33/46 and the “Median, Time” value [40] was 332. For the same substance, the “Evt/N, Time” value [41] was 6/8, the “Median, Time” value [41] was 171 and the “Evt/N, Time” value [42] was 15/24. For the same substance, the “Median, Time” value [42] was 533, the “Evt/N, Time” value [43] was 11/15 and the “Median, Time” value [43] was 374. For the same substance, the “Evt/N, Time” value [44] was 19/28, the “Median, Time” value [44] was 374 and the “Evt/N, Time” value [45] was 7/13. The “Median, Time” value [45] was 501, the “Evt/N, Time” value [46] was 8/13 and the “Median, Time” value [46] was 501. The “Evt/N, Time” value [47] was 12/18, the “Median, Time” value [47] was 533 and the “Evt/N, Time” value [48] was 26/39. For the same substance, the “Median, Time” value [48] was 374.
